ChEMBL document CHEMBL1136000, “Synthesis of a small library of 3-(carboranylalkyl)thymidines and their biological evaluation as substrates for human thymidine kinases 1 and 2” (J Med Chem, 2002)

Legend:
[1] = biological target: T1, Thymidine kinase, cytosolic (Homo sapiens) (UniProt P04183)
T1 sequence (whole entry): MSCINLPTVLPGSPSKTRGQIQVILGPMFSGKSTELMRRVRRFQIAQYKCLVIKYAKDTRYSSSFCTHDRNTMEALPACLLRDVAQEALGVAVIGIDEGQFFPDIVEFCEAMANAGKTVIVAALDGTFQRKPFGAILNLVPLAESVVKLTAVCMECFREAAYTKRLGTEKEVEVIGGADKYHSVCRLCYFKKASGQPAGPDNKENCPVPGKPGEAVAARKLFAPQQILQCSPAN
Description: Rate of phosphorylation in the presence of 1% DMSO using Phosphoryl transfer assay in recombinant human cytosolic thymidine kinase 1 at 10 uM

[2] = biological target: Thymidine kinase 2, mitochondrial (Homo sapiens) (UniProt O00142)
Sequence of Thymidine kinase 2, mitochondrial (Homo sapiens) (O00142 whole entry, looked up): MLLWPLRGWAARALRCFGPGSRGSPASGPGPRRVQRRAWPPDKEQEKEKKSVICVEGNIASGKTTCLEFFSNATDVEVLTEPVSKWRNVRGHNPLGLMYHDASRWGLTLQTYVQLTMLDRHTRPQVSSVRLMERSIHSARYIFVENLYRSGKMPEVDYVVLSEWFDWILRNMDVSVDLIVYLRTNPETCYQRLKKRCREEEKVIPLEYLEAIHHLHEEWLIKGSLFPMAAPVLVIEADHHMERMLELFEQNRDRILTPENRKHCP

[3] = biological target: T1, Thymidine kinase, cytosolic (Homo sapiens); remark: listed apart in the source
Description: Rate of phosphorylation in the presence of 1% DMSO using Phosphoryl transfer assay in recombinant human cytosolic thymidine kinase 1 at 5 uM

Structure (SMILES) | Rate of phosphorylation [1] | Rate of phosphorylation [2] | Rate of phosphorylation [3]
Cc1cn([C@H]2C[C@H](O)[C@@H](CO)O2)c(=O)n(CCCCCC2CC2CC(O)CO)c1=O (some centres undefined) | 0.41 | 0.002 | 0.39
Cc1cn([C@H]2C[C@H](O)[C@@H](CO)O2)c(=O)n(CCCC2CC2)c1=O | 0.3 | 0.002 | 0.27
Cc1cn([C@H]2C[C@H](O)[C@@H](CO)O2)c(=O)n(CCC2CC2CC(O)CO)c1=O (some centres undefined) | 0.45 | 0.002 | 0.49
Cc1cn([C@H]2C[C@H](O)[C@@H](CO)O2)c(=O)n(CCCCCC2CC2)c1=O | 0.41 | 0.001 | 0.57
Cc1cn([C@H]2C[C@H](O)[C@@H](CO)O2)c(=O)n(CCCCCCCC2CC2CC(O)CO)c1=O (some centres undefined) | 0.13 | < 0.001 | 0.13
Cc1cn([C@H]2C[C@H](O)[C@@H](CO)O2)c(=O)n(CCCC2CC2CC(O)CO)c1=O (some centres undefined) | 0.4 | 0.004 | 0.43
Cc1cn([C@H]2C[C@H](O)[C@@H](CO)O2)c(=O)n(CCCCCCCC2CC2)c1=O | 0.11 | < 0.001 | 0.15
Cc1cn([C@H]2C[C@H](O)[C@@H](CO)O2)c(=O)n(CCC2CC2)c1=O | 0.39 | 0.002 | 0.42
Cc1cn([C@H]2C[C@H](O)[C@@H](CO)O2)c(=O)[nH]c1=O | 1 | 1 | 1
Cc1cn([C@H]2C[C@H](O)[C@@H](CO)O2)c(=O)n(CCCCC2CC2CC(O)CO)c1=O (some centres undefined) | 0.21 | 0.003 | 0.21
Cc1cn([C@H]2C[C@H](O)[C@@H](CO)O2)c(=O)n(CCCCCCC2CC2)c1=O | 0.28 | < 0.001 | 0.31
Cc1cn([C@H]2C[C@H](O)[C@@H](CO)O2)c(=O)n(CCCCCCC2CC2CC(O)CO)c1=O (some centres undefined) | 0.32 | 0.002 | 0.22
Cc1cn([C@H]2C[C@H](O)[C@@H](CO)O2)c(=O)n(CCCCC2CC2)c1=O | 0.13 | 0.003 | 0.17
